Test results reported in article PMC3580045 (Journal of pharmacy & pharmaceutical sciences : a …, 2012).
Where two headings read alike, the source gives them in different places. Marks after values point to notes of the source that are not given here.

Assays:
[1] = pH 7.4 phosphate buffer, 37°C; mean ± SD; cited from earlier work
[2] = Hydrolysis in Capan-2 cell homogenate; format: in vitro ADME, human
[3] = Hydrolysis in human tumor liver tissue homogenate; format: in vitro ADME; settings: mean ± SD, n = 3; NA = no significant degradation
[4] = mean ± SD; cited from earlier work
[5] = Hydrolysis in Caco-2 cell homogenate; format: in vitro ADME, human; settings: for Half-lives, Caco-2 Cell Homogenate: pH 7.4 phosphate buffer, 37°C, mean ± SD, n = 3, NA = no significant degradation
[6] = Hydrolysis in human small intestinal; format: in vitro ADME
[7] = Stability in human liver microsomes; settings: for Half-lives, Human Liver Microsomes: mean ± SD, n = 3, NA = no significant degradation
[8] = Hydrolysis in human non-tumor liver tissue homogenate; format: in vitro ADME; settings: for Half-lives, Human non-Tumor Liver Tissue Homogenate: mean ± SD, n = 3, NA = no significant degradation
[9] = mean ± SD; cited from earlier work; remark: listed apart in the source
[10] = reported by several groups; cited from earlier work
[11] = Hydrolysis in human pancreas; format: in vitro ADME; settings: human pancreas tissue homogenate
[12] = Hydrolysis in AsPC-1 cell homogenate; format: in vitro ADME; settings: human, pH 7.4
[13] = phosphate buffer

| SMILES | Half-lives, Human Tumor Liver Tissue Homogenate [3] | Half-lives, Caco-2 Cell Homogenate [5] [min] | Half-lives, Human Liver Microsomes [7] [min] | Half-lives, Human non-Tumor Liver Tissue Homogenate [8] [min] | Half-lives, Buffer pH 7.4 [1] | Half-lives, AsPC-1 Cell Homogenate [4] | Half-lives, Capan-2 Cell Homogenate [9] | other results |
| --- | --- | --- | --- | --- | --- | --- | --- | --- |
| CC(C)[C@@H](N)C(=O)OC[C@H]1O[C@@H](n2cc(F)c(=O)[nH]c2=O)C[C@@H]1O [5′-O-D-valyl-floxuridine] | 9.4 ± 0.5 ^∞ min | 220.4 ± 64.0 | 705.9 ± 64.2 | 19.0 ± 0.2 | 344.9 ± 10.2 ^a min | 290.9 ± 48.9 ^a min | – | Half-lives, Capan-2 Cell Homogenate ([2]; mean ± SD, n = 3, NA = no significant degradation): 188.3 ± 12.1 min; fold more stable than 5′-O-L-valyl-floxuridine ([5]; Caco-2 homogenate): 16.1 fold; fold more stable than 5′-O-L-valyl-floxuridine ([6]; human intestinal tissue homogenate): 11.3 fold; fold better stability than 5′-O-L-valyl-floxuridine ([7]; human liver microsomes): 243 fold; fold more stable in human liver microsomes than in human liver tissue homogenates ([7]; microsomes vs liver tissue homogenates): at least 37 fold; fold better stability than 5′-O-L-valyl-floxuridine ([8]; human liver tissue homogenates (non-tumor and tumor)): 3- to 10 fold |
| CC[C@H](C)[C@H](N)C(=O)OC[C@H]1O[C@@H](n2cc(F)c(=O)[nH]c2=O)C[C@@H]1O [5′-O-L-isoleucyl-floxuridine] | < 0.2 min ^∞ | 131.6 ± 48.4 | 19.4 ± 7.8 | 5.2 ± 0.1 | 323.5 ± 1.5 ^a min | 198.0 ± 70.2 ^b min | 139.9 ± 15.3 ^b min | – |
| CC(C)C[C@H](N)C(=O)OC[C@H]1O[C@@H](n2cc(F)c(=O)[nH]c2=O)C[C@@H]1O [5′-O-L-leucyl-floxuridine] | – | 3.3 ± 0.9 | 0.8 ± 0.1 | < 0.2 | 83.2 ± 1.7 ^b min | 2.0 ± 0.1 ^a min | 4.7 ± 2.1 ^b min | – |
| N[C@@H](Cc1ccccc1)C(=O)NCC(=O)OC[C@H]1O[C@@H](n2cc(F)c(=O)[nH]c2=O)C[C@@H]1O [5′-O-L-phenylalanyl-L-glycyl-floxuridine] | – | 2.9 ± 0.5 | 15.9 ± 1.9 | 3.2 ± 0.3 | 132.1 ± 10.2 ^b min | 10.2 ± 0.3 ^b min | 4.3 ± 0.9 ^b min | – |
| N[C@@H](Cc1ccccc1)C(=O)N[C@@H](Cc1ccc(O)cc1)C(=O)OC[C@H]1O[C@@H](n2cc(F)c(=O)[nH]c2=O)C[C@@H]1O [5′-O-L-phenylalanyl-L-tyrosyl-floxuridine] | 241.4 ± 5.1 min | 115.2 ± 54.2 | 253.0 ± 36.2 | 358.3 ± 20.3 | 233.9 ± 6.6 ^b min | 59.7 ± 1.4 ^b min | 42.8 ± 0.0 ^b min | – |
| O=c1[nH]c(=O)n([C@H]2C[C@H](O)[C@@H](CO)O2)cc1F [Floxuridine, 5-fluoro-2′-deoxyuridine, reference compound] | – | – | – | – | – | – | – | fold higher potency than 5-FU [10]: 10- to 100 fold; stability (in words) [11]: good stability; half-life ([11]; human, non-tumor, pH 7.4): 209 ± 19.4 min; half-life ([2]; human, Capan-2 cell homogenate, pH 7.4): 17.8 ± 5.8 min; half-life [12]: 6.4 ± 3.2 min; half-life ([5]; human, Caco-2, pH 7.4): 14.3 ± 7 min; half-life ([6]; human, pH 7.4): 14 ± 4 min; half-life ([7]; human, human liver microsomes): < 0.2 min; half-life ([8]; human, human non-tumor liver tissue homogenate, pH 7.4): 5 ± 2.4 min |
| O=C(O[C@H]1C[C@H](n2cc(F)c(=O)[nH]c2=O)O[C@@H]1CO)[C@@H]1CCCN1 [Floxuridine-3′-L-proline] | – | – | – | – | – | – | – | stability (in words) ([5]; Caco-2 cell homogenate): stable; stability (in words) ([6]; human small bowel tissue homogenate): stable; degradation (in words) ([7]; human liver microsomes, over 2 hr): no significant degradation; stability (in words) [13]: stable; degradation (in words) ([8]; human liver tissue homogenate, over 2 hr): no significant degradation |

Continued, in another order:

| Half-lives, Human Tumor Liver Tissue Homogenate [3] | Half-lives, Caco-2 Cell Homogenate [5] [min] | Half-lives, Human Liver Microsomes [7] [min] | Half-lives, Human non-Tumor Liver Tissue Homogenate [8] [min] | SMILES | Half-lives, Buffer pH 7.4 [1] | Half-lives, AsPC-1 Cell Homogenate [4] | Half-lives, Capan-2 Cell Homogenate [9] | other results |
| --- | --- | --- | --- | --- | --- | --- | --- | --- |
| – | 12.2 ± 0.1 | 1.3 ± 0.4 | 3.2 ± 1.2 | N[C@@H](Cc1ccccc1)C(=O)OC[C@H]1O[C@@H](n2cc(F)c(=O)[nH]c2=O)C[C@@H]1O [5′-O-L-phenylalanyl-floxuridine] | 187.0 ± 19.0 ^b min | 11.8 ± 1.7 ^b min | 3.0 ± 0.1 ^b min | – |
| < 0.2 min ^* ^∞ | 57.6 ± 9.3 | 24.7 ± 2.4 | 2.2 ± 0.0 | CC(C)[C@H](N)C(=O)N[C@@H](Cc1ccccc1)C(=O)OC[C@H]1O[C@@H](n2cc(F)c(=O)[nH]c2=O)C[C@@H]1O [5′-O-L-valyl-L-phenylalanyl-floxuridine] | 104.7 ± 7.0 ^b min | 51.6 ± 4.2 ^b min | 56.2 ± 12.8 ^b min | – |
| 3.5 ± 0.2 ^∞ min | 13.7 ± 2.0 | 2.9 ± 0.1 | 2.0 ± 0.3 | CC(C)[C@H](N)C(=O)OC[C@H]1O[C@@H](n2cc(F)c(=O)[nH]c2=O)C[C@@H]1O [5′-O-L-valyl-floxuridine] | 304.0 ± 33.3 ^b min | 18.7 ± 6.7 ^b min | 5.2 ± 2.4 ^b min | – |
